Results taken from US8637530B2, “8-(3-amino-piperidin-1-yl)-xanthines, their preparation, and their use as pharmaceuticals” (Boehringer Ingelheim International GmbH, priority 2005, dated 2014).

How the values were obtained:
[1] = Absorption characteristics (water uptake / hygroscopic behaviour as a function of relative humidity); format: physicochemical; details: for change into a hydrate phase: with rising relative humidity (free base: above 50% r.h.); for hygroscopic characteristics / behaviour: absorption characteristics, FIG. 7 / FIG. 10
[2] = Humidity-dependent X-ray powder images (phase change); format: physicochemical
Description: The X-ray powder diagrams, with one exception, were recorded using an STOE Stadi P X-ray powder diffractometer. This diffractometer operates with CuKα1 radiation (gamma=1.5406 Angstroms) and a location-sensitive detector. The X-ray generator was operated at 40 mA and 40 kV.
The X-ray powder diagram of the monohydrate of the free base was recorded with a Bruker D8 Advance X-ray powder diffractometer on which a special air humidity cell made by MRI had been placed. The diagram was recorded at about 72% r.h. The Bruker D8 Advance operates with CuKα radiation (gamma=1.5418 Angstroms) and also a location-sensitive detector. The X-ray generator was operated at 30 mA and 40 kV.

water taken up ([1]; above 50% r.h., FIG. 4) | relative humidity up to which the anhydrous form is stable ([1]; anhydrous form, FIG. 4) | reversibility of the conversion into the monohydrate ([1]; relative humidity brought back to 50% or less) | relative humidity at which water is absorbed ([1]; FIG. 7) [% r.h.] | hygroscopic characteristics / behaviour [1] | phase change ([2]; above 80% r.h.) | phase change ([2]; humidity range from 10-90 r.h.) | SMILES | change into a hydrate phase [1] | water uptake over relative humidity ([1]; whole range of relative humidities, FIG. 10)
about 4% | up to 50% | totally reversible |  |  |  |  | CC#CCn1c(N2CCC[C@@H](N)C2)nc2c1c(=O)n(Cc1ncccc1C#N)c(=O)n2C [Example 2, 1-[(3-cyano-pyridin-2-yl)methyl]-3-methyl-7-(2-butyn-1-yl)-8-(3-(R)-amino-piperidin-1-yl)-xanthine] | changes into a monohydrate | 
 |  |  | > 80 | less marked hygroscopic characteristics | no phase change |  | CC#CCn1c(N2CCC[C@@H](N)C2)nc2c1c(=O)n(Cc1ncccc1C#N)c(=O)n2C.Cl [Example 3, 1-[(3-cyano-pyridin-2-yl)methyl]-3-methyl-7-(2-butyn-1-yl)-8-[(R)-3-amino-piperidin-1-yl]-xanthine monohydrochloride] | no reversible change into a hydrate phase | 
 |  |  |  | unremarkable hygroscopic behaviour |  | no phase change | CC#CCn1c(N2CCC[C@@H](N)C2)nc2c1c(=O)n(Cc1ncccc1C#N)c(=O)n2C.Cl.Cl [Example 4, 1-[(3-cyano-pyridin-2-yl)methyl]-3-methyl-7-(2-butyn-1-yl)-8-[(R)-3-amino-piperidin-1-yl]-xanthine-dihydrochloride] | no reversible change into a hydrate phase | takes up a certain amount of water continuously over the whole range of relative humidities
